Laboratory results taken from publication PMC6858440, “Computational redesign of the Escherichia coli ribose-binding protein ligand binding pocket for 1,3-cyclohexanediol and cyclohexanol” (Scientific Reports, 2019).

Target: RbsB ribose-binding protein (Escherichia coli, UniProt P02925)
Experiment: ITC with purified protein; also ~[…] °C Tm shift with […] ribose

RbsB ribose-binding protein, sequence (P02925 26-296): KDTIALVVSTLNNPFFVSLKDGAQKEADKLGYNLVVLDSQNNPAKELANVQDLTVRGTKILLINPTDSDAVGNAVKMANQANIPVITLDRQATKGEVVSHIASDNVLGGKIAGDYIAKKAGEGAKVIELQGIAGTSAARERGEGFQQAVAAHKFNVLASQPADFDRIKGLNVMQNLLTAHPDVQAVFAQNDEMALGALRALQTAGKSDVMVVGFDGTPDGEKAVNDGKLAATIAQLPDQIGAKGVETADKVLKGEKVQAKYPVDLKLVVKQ

O=C[C@H](O)[C@H](O)[C@H](O)CO [ribose]
Kd: 530 nM
